According to patent US11470844B2, “Vespidae wasp repellent” (KINP CO., LTD, priority 2015, dated 2022):

What was measured:
Apis mellifera worker = settings: in vivo
Description: The experiment involving a Apis mellifera worker which was sucking nectar from a flower of Abelia planted at a bank of Noda pond located at Fuseishi-cho, Takamatsu City, Kagawa Prefecture was conducted on Jul. 22 to 24, 2015.
With respect to the experimental condition, first, distilled water was sprayed once on the worker which was sucking nectar or moving from a flower to a flower by using a sprayer, and then the inventors observed the behavior for 30 seconds. Next, benzyl alcohol, 2-phenylethanol or benzyl acetate was sprayed once on the same worker by using the sprayer having the same mass and the same volume, and then the inventors observed the behavior up to 30 seconds. The test liquid was judged to be “effective” in the case where the Apis mellifera worker on which the test liquid was sprayed did different action than normal activity to visit a flower during the observation time.

Vespa mandarinia worker = assay: Spray on Vespa mandarinia worker collecting sawthorn oak sap; format: in vivo, Vespa mandarinia japonica Radoszkowski; settings: 10 workers; for behavior of workers after spraying: immediately started flapping, same time or a few seconds later; for Number of worker Effective / Number of worker No response: sprayed one time, observed up to 1 minute
Description: The experiment was conducted on a Vespa mandarinia japonica Radoszkowski worker which flew to a sawthorn oak tree bleeding sap and which collected the sap in Kagawa Prefecture Kinbuchi Forest Park in Takamatsu City Kagawa Prefecture from June to October, 2014 and from June to July, 2015.
Specifically, 100 mL of distilled water was enclosed in a plastic sprayer having a volume of 200 mL to be used as a control sprayer, and 100 mL of benzyl alcohol was enclosed in the same material and the same volume sprayer to be used as a test liquid sprayer. First, distilled water was sprayed one time to one Vespa mandarinia worker which was collecting sap at a sap bleeding part of a trunk of a sawthorn oak tree by using a control sprayer. […] Then, benzyl alcohol was sprayed one time by using a test liquid sprayer. Next, the workers were observed up to 1 minute. With respect to 2-phenylethanol, 3-phenylpropanol, 1-phenyl-2-prpanol and benzyl acetate, the spray test to a Vespa mandarinia worker collecting a sawthorn oak sap was conducted in the same condition.

| SMILES | Number of worker Effective (Apis mellifera worker) | Number of worker No response (Apis mellifera worker) | behavior of workers after spraying (Vespa mandarinia worker) | Number of worker Effective (Vespa mandarinia worker) | Number of worker No response (Vespa mandarinia worker) |
| --- | --- | --- | --- | --- | --- |
| CC(=O)OCc1ccccc1 [Benzyl acetate, benzyl acetate] | 0/10 | 10/10 | flew away from the sap bleeding part | 10/10 | 0/10 |
| CC(O)Cc1ccccc1 (centres unmarked) [1-Phenyl-2-propanol, 1-phenyl-2-propanol] |  |  | flew away from the sap bleeding part | 10/10 | 0/10 |
| OCCCc1ccccc1 [3-Phenylpropanol, 3-phenylpropanol] |  |  | flew away from the sap bleeding part | 10/10 | 0/10 |
